Measurements taken from patent publication US20170166870A1, “HUMAN HEPATIC 3D CO-CULTURE MODEL AND USES THEREOF” (Vrije Universiteit Brussel, priority 2014, published 2017).
Where two headings read alike, the source gives them in different places.

Tests used:
3D HepaRG/HSC co-culture [1] = assay: Exposure to pro-fibrotic factors, gene expression; assay type: cell-based, human
Procedure: From day 14 to day 21, 3D HepaRG/HSC spheroids were exposed to a solution of 100 ng/ml Lipopolysaccharide (LPS, Sigma) in culture medium, refreshed every second day up to day 21. Incubation with the Transforming growth factor-β1 (TGF-β1, R&D systems inc., Minneapolis, Minn., USA) was performed on day 19 for 48 h at a concentration of 10 ng/ml in HepaRG Induction/Toxicity medium. On day 21, cells were lysed and gene expression was analyzed upon RNA extraction.
(§1) Total RNA was extracted from cells using the ReliaPrep RNA Cell Miniprep System (Promega, Madison, Wis.). Reverse-transcription using the Revert Aid Kit (ThermoFisher Scientific, St. Leon-Rot, Germany) allowed conversion of RNA to cDNA. The RT reaction was performed at 25° C. for ten minutes followed by 30 minutes at 50° C. For quantitative real-time polymerase chain reaction (qPCR), GoTaq QPCR Master Mix with BRYTE green (Promega, Madison, Wis.) was used, subjected to qPCR in a 7500 real time PCR system and analysed using System SDS software v2.0.5 (Applied Biosystems), using GAPDH for normalisation.

3D HepaRG/HSC co-culture [2] = assay: APAP toxicity assay, cell viability by ATP (Cell titer Glo); assay type: cell-based, human; conditions: 2.5 mM VPA with APAP
Procedure: APAP toxicity assay was performed in 3D HepaRG/co-culture as well as in 3D HepaRG monoculture. […] For some experiments the culture medium was supplemented with 2.5 mM valproic acid (VPA sodium salt, Sigma-Aldrich) or with cytokine mixture (Raicevic et al.,2012)-interleukin (IL)-1β 25 ng/mL (Peprotech, Rocky Hill, N.J., USA), interferon (IFN)-γ 10^3 U/mL, tumor necrosis factor (TNF)-a 50 ng/mL, and IFN-α 3·10^3 U/mL (all from Prospec, Inc., East Brunswick, N.J., USA). For the recovery assay, at the end of APAP incubation, cells were washed using HepaRG culture 0% DMSO medium and kept in the same medium for 3 more days.
(§2) At the end of the incubation period, 5 spheroids per condition were pooled and lysed for RNA analyses, while the remaining spheroids per condition were lysed individually for viability analysis using the Cell titer Glo kit (Promega) for ATP measurements following the instructions of the manufacturer.

3D HepaRG/HSC co-culture [3] = assay: mRNA expression of HSC activation markers (qPCR) after APAP incubation; assay type: cell-based, human; conditions: 2.5 mM VPA, highest APAP concentrations
Procedure: APAP toxicity assay was performed in 3D HepaRG/co-culture as well as in 3D HepaRG monoculture. For 24 h, starting at day 20, cells were exposed to a range of APAP concentrations between 0.5 and 80 mM, keeping cells with the solvent (0.1% DMSO) as a control. For some experiments the culture medium was supplemented with 2.5 mM valproic acid (VPA sodium salt, Sigma-Aldrich) or with cytokine mixture (Raicevic et al.,2012)-interleukin (IL)-1β 25 ng/mL (Peprotech, Rocky Hill, N.J., USA), interferon (IFN)-γ 10^3 U/mL, tumor necrosis factor (TNF)-a 50 ng/mL, and IFN-α 3·10^3 U/mL (all from Prospec, Inc., East Brunswick, N.J., USA). For the recovery assay, at the end of APAP incubation, cells were washed using HepaRG culture 0% DMSO medium and kept in the same medium for 3 more days.
as §2, §1

[4] = tested on: 3D mouse hepatocyte/HSC co-culture (1Hep:2HSC); assay: LPS stimulation of 3D mouse hepatic co-cultures, aSMA and Col1a1 expression; assay type: cell-based; conditions: 6 days LPS treatment, day 9; 1Hep:2HSC ratio
Description: FIG. 1: Screen of hepatocyte:hepatic stellate cell ratios in 3D mouse cultures. Figure represents the HSC activation markers (A, B) and Hepatocyte markers (C) measured in the different 3D mouse hepatic co-cultures. A—basal gene expression of fibrotic markers (aSMA and Col1a1) on day 9 of culture. B—Fold increase of aSMA and Col1a1 on day 9 upon 6 days treatment with the pro-fibrotic factor LPS. Horizontal line corresponds to non-treated 3D co-cultures for each case. C—over-time gene expression of albumin (a) and CYP3A11 (b) in the 3D co-cultures where better results were obtained previously (2hep:1HSC and 1Hep:2HSC). Comparisons between groups were analyzed for statistical significance by one-way ANOVA followed by Tukey. *** p<0.001; ** p<0.01; * p<0.05. […]
Total RNA was extracted from cells using the ReliaPrep RNA Cell Miniprep System (Promega, Madison, Wis.). […] For quantitative real-time polymerase chain reaction (qPCR), GoTaq QPCR Master Mix with BRYTE green (Promega, Madison, Wis.) was used, subjected to qPCR in a 7500 real time PCR system and analysed using System SDS software v2.0.5 (Applied Biosystems), using GAPDH for normalisation. Reliability of GAPDH as house-keeping gene was determined using Normfinder (Andersen, Jensen et al. 2004) to produce the ΔCT values. […]

3D HepaRG/HSC co-culture [5] = assay: Single and repeated exposure, gene expression of HSC activation markers; assay type: cell-based, human; conditions: for HSC activation (up-regulation of activation markers, mRNA): serum-free medium
Procedure: (§3) Single and repeated exposure. For the single and repeated compound exposure cell spheroids (3D HepaRG/HSC, 3D HepaRG and 3D HSC) were exposed respectively on day 20 for 24 h or every second day from day 8 to day 21 in serum-free medium with no additional solvent. Cells were exposed to a range of 8 concentrations between 0.5 and 80 mM for APAP single-dose, 0.125 and 40 mM for APAP repeated-dose, 0.3 and 500 μM Allyl Alcohol (AA, Sigma-Aldrich), 1.9 and 1000 μM Methotrexate (MTX, Pfizer, NY, USA). For the recovery assay, on day 21, cells were washed using serum-free medium and kept for 3 extra days.
For the cell culture samples, total RNA from 4-6 pooled spheroids was extracted from cells using the RNeasy Micro Kit (Qiagen, Venlo, Limburg, Netherlands). In the mouse assays, sorted HSC from different mice were lysed separately. Total RNA from tissue cultured cells was extracted using ReliaPrep RNA Cell Miniprep System (Promega).
Reverse-transcription using the Revert Aid Kit (ThermoFisher Scientific, Waltham, Massachusetts, USA) allowed conversion of RNA to cDNA. The RT reaction was performed at 25° C. for ten minutes followed by 30 minutes at 50° C. For quantitative real-time polymerase chain reaction (qPCR), GoTaq QPCR Master Mix with BRYTE green (Promega) was used, subjected to qPCR in a 7500 real time PCR system and analysed using System SDS software v2.0.5 (Applied Biosystems, Waltham, Mass., USA), using GAPDH for normalisation. Reliability of GAPDH as house-keeping gene was determined using Normfinder (Anderson et al., 2004). Fold change differences between samples were determined using the comparative Ct (δδCt) method. The expression level of different targets, relative to GAPDH (δCt) and relative to the calibrator, was given by 2^−δδCt.

3D HepaRG/HSC co-culture [6] = assay: Single and repeated exposure, procollagen in culture supernatant; assay type: cell-based, human; conditions: repeated exposure, day 14; not observed at day 21
Description: (§4) FIG. 10: APAP and reference fibrotic compounds in single- and repeated-exposure of the 3D HepaRG/HSC co-culture. (A, C and E) cell viability, represented by % ATP and (B, D and F) gene expression. Error bars represent the standard deviation between independent assays (N=2) each point represents the pool of 5-6 spheroids. (D, F) Graph inserts represent the second repeat of the assay. Due to the variation between assays values could not be averaged together. Each point represents the pool of 5-6 spheroids. (G-H) Fibrosis read-outs at the protein level. (G) Procollagen measurements in culture supernatant upon single and repeated compound exposure (day 14 and 21) to 3D HepaRG/HSCs. (H) Procollagen measurements in culture supernatant upon 24 h incubation with the reference pro-fibrotic compounds of 3D HepaRG and 3D HSCmono-cultures.
(§5) Samples for pro-collagen measurement were five times concentrated using 10 kD Vivaspin 500 ultrafiltration columns (VWR, Radnor, Pa.), the resulting supernatant was analysed for the presence of Type I C-Peptide using the TAKARA (Chanteloup-en-Brie, France) kit.
(§6) Single and repeated exposure. For the single and repeated compound exposure cell spheroids (3D HepaRG/HSC, 3D HepaRG and 3D HSC) were exposed respectively on day 20 for 24 h or every second day from day 8 to day 21 in serum-free medium with no additional solvent. […]

3D HepaRG/HSC co-culture [7] = assay: Single and repeated exposure, cell viability (% ATP), serum-free medium; assay type: cell-based, human
Procedure: Culture medium. Day 0 cells were resuspended in HepaRG thawing medium and from day 1 to 21 cells were kept in the HepaRG culture medium 0% DMSO, until day 8. For the repeated versus single compound exposure assays, on day 8, the HepaRG culture medium 0% DMSO was replaced by the Serum-free HepaRG maintenance medium described in Klein et. al. 2013 (HepaRG Induction/Toxicity medium, DMSO 0.5% (v/v), 2 μg/ml of epidermal growth factor and 10 μg/ml of hepatocyte growth factor) and kept in this medium until the end of culture.
as §3
Cell viability assay was performed by measuring ATP production upon individual spheroid exposure to the different concentrations of the test compound. Cell spheroids were lysed individually for viability analysis using the Cell titer Glo kit (Promega) following the instructions of the manufacturer. Luminescence values were converted into percentage of ATP by comparison with controls and converted into dose-response curves using Prism 5 software.

[8] = tested on: 3D HepaRG and 3D HSC mono-cultures; assay: Procollagen in culture supernatant of mono-cultures, reference pro-fibrotic compounds; assay type: cell-based, human; conditions: 3D mono-cultures, 24 h incubation
Description: as §4, §5, §6

TGFβ: Transforming growth factor-β1, known pro-fibrogenic factor
activation markers (Acta2, Col1a1, Col3a1, Loxl2) expression (3D HepaRG/HSC co-culture [1]; 10 ng/ml TGFβ, 48 h, day 21): acted on the activation markers

CCCC(CCC)C(=O)O [VPA, valproic acid]
effect on APAP toxicity (cell viability) (3D HepaRG/HSC co-culture [2]): did not affect APAP toxicity
effect on APAP-induced HSC markers (3D HepaRG/HSC co-culture [3]): lower up-regulation of the HSC markers

Lipopolysaccharide [LPS]
activation response (aSMA, Col1a1) [4]: increased aSMA and Col1a1
survivor markers (IL6, MMP1, CCL2, TNFα, IL1β) expression (3D HepaRG/HSC co-culture [1]; 100 ng/ml LPS, 6 days): induced an up-regulation of the survivor markers

C=CCO [Allyl Alcohol]
HSC activation (up-regulation of activation markers, mRNA) (3D HepaRG/HSC co-culture [5]; repeated exposure): increase of the HSC activation markers at mRNA levels
HSC activation (up-regulation of activation markers, mRNA) (3D HepaRG/HSC co-culture [5]; single exposure 24 h): increase of the HSC activation markers at mRNA levels
collagen secretion (3D HepaRG/HSC co-culture [6]): high collagen secretion at day 14
cell viability dose-response (3D HepaRG/HSC co-culture [7]; repeated exposure): disappeared upon repeated exposure
cell viability (3D HepaRG/HSC co-culture [7]; single exposure): dose-response observed at the single exposure
collagen secretion [8]: no collagen secretion is detected

CN(Cc1cnc2nc(N)nc(N)c2n1)c1ccc(C(=O)N[C@@H](CCC(=O)O)C(=O)O)cc1 [MTX, Methotrexate]
recovery of HSC 3 days after compound washout (3D HepaRG/HSC co-culture [5]; repeated exposure 63 μM): observed
HSC activation (up-regulation of activation markers, mRNA) (3D HepaRG/HSC co-culture [5]; repeated exposure): dramatically compensated
HSC activation (up-regulation of activation markers, mRNA) (3D HepaRG/HSC co-culture [5]; single exposure 24 h): no longer observed
collagen secretion (3D HepaRG/HSC co-culture [6]): high collagen secretion at day 14
cell viability (3D HepaRG/HSC co-culture [7]): does not seem to affect cell viability at any of the tested concentrations
percentage of ATP production (3D HepaRG/HSC co-culture [7]; repeated exposure, lowest concentration): less than 20%
collagen secretion [8]: no collagen secretion is detected
